pIC50, pKi: −log10 of the molar value. Residues, ends and D or L forms follow the SMILES beside them.
Assays:
[1] = Inhibition of FXIIa (unknown origin) using Ac-QRFR-pNA as substrate measured at 30 sec interval by microplate reader assay; set-up: species or system Homo sapiens
Homo sapiens = species: Homo sapiens; experiment: Potency index, ratio of M8 Ki to test compound Ki for inhibition of FXIIa (unknown origin)
[2] = Inhibition of human cationic trypsin using Boc-VPR-MCA as susbtrate
Plasminogen = Plasminogen (Homo sapiens, UniProt P00747); experiment: Inhibition of human plasmin using Ac-RM(O2)YR-pNA as substrate
Chain of Plasminogen (P00747 97-580 limits assumed): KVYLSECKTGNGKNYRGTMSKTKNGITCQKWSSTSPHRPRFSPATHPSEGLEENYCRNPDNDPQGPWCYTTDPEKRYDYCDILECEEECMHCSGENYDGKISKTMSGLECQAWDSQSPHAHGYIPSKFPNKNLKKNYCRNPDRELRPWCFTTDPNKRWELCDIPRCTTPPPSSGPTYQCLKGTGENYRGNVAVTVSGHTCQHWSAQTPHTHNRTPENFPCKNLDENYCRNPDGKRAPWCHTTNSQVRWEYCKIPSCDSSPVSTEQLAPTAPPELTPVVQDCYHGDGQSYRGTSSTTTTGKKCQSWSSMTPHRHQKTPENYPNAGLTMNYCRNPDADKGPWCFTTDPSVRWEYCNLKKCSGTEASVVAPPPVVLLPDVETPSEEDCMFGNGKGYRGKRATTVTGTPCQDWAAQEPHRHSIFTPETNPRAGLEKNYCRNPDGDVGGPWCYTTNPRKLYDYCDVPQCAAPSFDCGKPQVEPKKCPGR
Chain of Plasminogen (P00747 581-810 limits assumed): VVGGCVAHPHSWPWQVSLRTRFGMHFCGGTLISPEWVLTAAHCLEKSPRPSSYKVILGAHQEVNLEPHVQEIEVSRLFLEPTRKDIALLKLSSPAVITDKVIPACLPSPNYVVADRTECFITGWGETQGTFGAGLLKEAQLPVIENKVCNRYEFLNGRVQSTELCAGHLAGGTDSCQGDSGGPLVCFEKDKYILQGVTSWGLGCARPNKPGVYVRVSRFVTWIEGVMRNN

[3] = Inhibition of human FXa using Z-Pyr-GR-MCA as substrate

Compound	pKi [1]	Ratio Ki (Homo sapiens)	pKi [2]	pKi (Plasminogen)	pIC50 [3]
CC[C@H](C)[C@@H]1NC(=O)[C@H](CCCNC(=N)N)NC(=O)[C@H](Cc2ccccc2)NC(=O)[C@@H]2CSSC[C@H]3NC(=O)[C@H](C)NC(=O)CNC(=O)[C@@H]4CCCN4C(=O)[C@@H]4CSSC[C@H](NC(=O)[C@H](Cc5ccc(O)cc5)NC(=O)CNC(=O)[C@H](CC(N)=O)NC(=O)CNC(=O)[C@H](CCCNC(=N)N)NC(=O)[C@H](CSSC[C@H](NC(=O)[C@H](CCCCN)NC(=O)[C@H](CCCCN)NC(=O)[C@H](CC(C)C)NC1=O)C(=O)N[C@@H](CCCNC(=N)N)C(=O)N[C@@H](CCCNC(=N)N)C(=O)N[C@@H](CC(=O)O)C(=O)N[C@@H](CO)C(=O)N[C@@H](CC(=O)O)C(=O)N4)NC(=O)[C@H]([C@@H](C)CC)NC3=O)C(=O)NCC(=O)N[C@@H](CO)C(=O)NCC(=O)N[C@@H](CCC(N)=O)C(=O)N2	6.81	1.2			
CC[C@H](C)[C@@H]1NC(=O)[C@@H]2CSSC[C@H](NC(=O)[C@H](CCC(N)=O)NC(=O)CNC(=O)CN)C(=O)N[C@@H](Cc3ccccc3)C(=O)N[C@@H](CCCNC(=N)N)C(=O)N[C@@H]([C@@H](C)CC)C(=O)N[C@@H](CC(C)C)C(=O)N[C@@H](CCCCN)C(=O)N[C@@H](CCCCN)C(=O)N[C@@H]3CSSC[C@H](NC1=O)C(=O)N[C@@H](CCCNC(=N)N)C(=O)NCC(=O)N[C@@H](CC(N)=O)C(=O)NCC(=O)N[C@@H](Cc1ccc(O)cc1)C(=O)N[C@H](C(=O)NCC(=O)N[C@@H](C)C(=O)O)CSSC[C@H](NC(=O)[C@H](CC(=O)O)NC(=O)[C@H](CO)NC(=O)[C@H](CC(=O)O)NC(=O)[C@H](CCCNC(=N)N)NC(=O)[C@H](CCCNC(=N)N)NC3=O)C(=O)N1CCC[C@H]1C(=O)NCC(=O)N[C@@H](C)C(=O)N2	6.80				
CC[C@H](C)[C@@H]1NC(=O)[C@@H]2CSSC[C@@H]3NC(=O)[C@H](CCC(N)=O)NC(=O)CNC(=O)CNC(=O)[C@H](CC(=O)O)NC(=O)[C@H](CO)NC(=O)CNC(=O)[C@@H]4CSSC[C@H](NC(=O)[C@H](CC(=O)O)NC(=O)[C@H](CO)NC(=O)[C@H](CC(=O)O)NC(=O)[C@H](CCCNC(=N)N)NC(=O)[C@H](CCCNC(=N)N)NC(=O)[C@H](CSSC[C@H](NC1=O)C(=O)N[C@@H](CCCNC(=N)N)C(=O)NCC(=O)N[C@@H](CC(N)=O)C(=O)NCC(=O)N[C@@H](Cc1ccc(O)cc1)C(=O)N4)NC(=O)[C@H](CCCCN)NC(=O)[C@H](CCCCN)NC(=O)[C@H](CC(C)C)NC(=O)[C@H]([C@@H](C)CC)NC(=O)[C@H](CCCNC(=N)N)NC(=O)[C@H](Cc1ccccc1)NC3=O)C(=O)N1CCC[C@H]1C(=O)NCC(=O)N[C@@H](C)C(=O)N2 (HELM PEPTIDE1{A.C.I.C.R.G.N.G.Y.C.G.S.D.G.G.Q.C.F.R.I.L.K.K.C.R.R.D.S.D.C.P.G}$PEPTIDE1,PEPTIDE1,2:R3-17:R3|PEPTIDE1,PEPTIDE1,4:R3-24:R3|PEPTIDE1,PEPTIDE1,10:R3-30:R3|PEPTIDE1,PEPTIDE1,1:R1-32:R2$$$V2.0)	7.04	2.1			
CC[C@H](C)[C@@H]1NC(=O)[C@@H]2CSSC[C@@H]3NC(=O)[C@H](CCC(N)=O)NC(=O)CNC(=O)CNC(=O)CNC(=O)[C@H](CO)NC(=O)CNC(=O)[C@@H]4CSSC[C@H](NC(=O)[C@H](CC(=O)O)NC(=O)[C@H](CO)NC(=O)[C@H](CC(=O)O)NC(=O)[C@H](CCCNC(=N)N)NC(=O)[C@H](CCCNC(=N)N)NC(=O)[C@H](CSSC[C@H](NC1=O)C(=O)N[C@@H](CCCNC(=N)N)C(=O)NCC(=O)N[C@@H](CC(N)=O)C(=O)NCC(=O)N[C@@H](Cc1ccc(O)cc1)C(=O)N4)NC(=O)[C@H](CCCCN)NC(=O)[C@H](CCCCN)NC(=O)[C@H](CC(C)C)NC(=O)[C@H]([C@@H](C)CC)NC(=O)[C@H](CCCNC(=N)N)NC(=O)[C@H](Cc1ccccc1)NC3=O)C(=O)N1CCC[C@H]1C(=O)NCC(=O)N[C@@H](C)C(=O)N2 (HELM PEPTIDE1{A.C.I.C.R.G.N.G.Y.C.G.S.G.G.G.Q.C.F.R.I.L.K.K.C.R.R.D.S.D.C.P.G}$PEPTIDE1,PEPTIDE1,2:R3-17:R3|PEPTIDE1,PEPTIDE1,4:R3-24:R3|PEPTIDE1,PEPTIDE1,10:R3-30:R3|PEPTIDE1,PEPTIDE1,1:R1-32:R2$$$V2.0)	7.12	2.6			
CC[C@H](C)[C@@H]1NC(=O)[C@@H]2CSSC[C@@H]3NC(=O)[C@H](CCC(N)=O)NC(=O)CNC(=O)CNC(=O)[C@H](CO)NC(=O)CNC(=O)[C@H](CO)NC(=O)CNC(=O)[C@@H]4CSSC[C@H](NC(=O)[C@H](CC(=O)O)NC(=O)[C@H](CO)NC(=O)[C@H](CC(=O)O)NC(=O)[C@H](CCCNC(=N)N)NC(=O)[C@H](CCCNC(=N)N)NC(=O)[C@H](CSSC[C@H](NC1=O)C(=O)N[C@@H](CCCNC(=N)N)C(=O)NCC(=O)N[C@@H](CC(N)=O)C(=O)NCC(=O)N[C@@H](Cc1ccc(O)cc1)C(=O)N4)NC(=O)[C@H](CCCCN)NC(=O)[C@H](CCCCN)NC(=O)[C@H](CC(C)C)NC(=O)[C@H]([C@@H](C)CC)NC(=O)[C@H](CCCNC(=N)N)NC(=O)[C@H](Cc1ccccc1)NC3=O)C(=O)N1CCC[C@H]1C(=O)NCC(=O)N[C@@H](C)C(=O)N2 (HELM PEPTIDE1{A.C.I.C.R.G.N.G.Y.C.G.S.G.S.G.G.Q.C.F.R.I.L.K.K.C.R.R.D.S.D.C.P.G}$PEPTIDE1,PEPTIDE1,2:R3-18:R3|PEPTIDE1,PEPTIDE1,4:R3-25:R3|PEPTIDE1,PEPTIDE1,10:R3-31:R3|PEPTIDE1,PEPTIDE1,1:R1-33:R2$$$V2.0)	6.85	1.4			
CC[C@H](C)[C@@H]1NC(=O)[C@@H]2CSSC[C@@H]3NC(=O)[C@H](CCC(N)=O)NC(=O)CNC(=O)CNC(=O)[C@H](CO)NC(=O)[C@H](CO)NC(=O)CNC(=O)[C@@H]4CSSC[C@H](NC(=O)[C@H](CC(=O)O)NC(=O)[C@H](CO)NC(=O)[C@H](CC(=O)O)NC(=O)[C@H](CCCNC(=N)N)NC(=O)[C@H](CCCNC(=N)N)NC(=O)[C@H](CSSC[C@H](NC1=O)C(=O)N[C@@H](CCCNC(=N)N)C(=O)NCC(=O)N[C@@H](CC(N)=O)C(=O)NCC(=O)N[C@@H](Cc1ccc(O)cc1)C(=O)N4)NC(=O)[C@H](CCCCN)NC(=O)[C@H](CCCCN)NC(=O)[C@H](CC(C)C)NC(=O)[C@H]([C@@H](C)CC)NC(=O)[C@H](CCCNC(=N)N)NC(=O)[C@H](Cc1ccccc1)NC3=O)C(=O)N1CCC[C@H]1C(=O)NCC(=O)N[C@@H](C)C(=O)N2 (HELM PEPTIDE1{A.C.I.C.R.G.N.G.Y.C.G.S.S.G.G.Q.C.F.R.I.L.K.K.C.R.R.D.S.D.C.P.G}$PEPTIDE1,PEPTIDE1,2:R3-17:R3|PEPTIDE1,PEPTIDE1,4:R3-24:R3|PEPTIDE1,PEPTIDE1,10:R3-30:R3|PEPTIDE1,PEPTIDE1,1:R1-32:R2$$$V2.0)	6.88	1.5			
CC[C@H](C)[C@@H]1NC(=O)[C@@H]2CSSC[C@H](NC(=O)[C@H](CCC(N)=O)NC(=O)CNC(=O)CN)C(=O)N[C@@H](Cc3ccccc3)C(=O)N[C@@H](CCCNC(=N)N)C(=O)N[C@@H]([C@@H](C)CC)C(=O)N[C@@H](CC(C)C)C(=O)N[C@@H](CCCCN)C(=O)N[C@@H](CCCCN)C(=O)N[C@H]3CSSC[C@H](NC1=O)C(=O)N[C@@H](CCCNC(=N)N)C(=O)NCC(=O)N[C@@H](CC(N)=O)C(=O)NCC(=O)N[C@@H](Cc1ccc(O)cc1)C(=O)N[C@H](C(=O)N[C@@H](C)C(=O)N[C@@H](CO)C(=O)O)CSSC[C@H](NC(=O)[C@H](CC(=O)O)NC(=O)[C@H](CO)NC(=O)[C@H](CC(=O)O)NC(=O)[C@H](CCCNC(=N)N)NC(=O)[C@H](CCCNC(=N)N)NC3=O)C(=O)N1CCC[C@H]1C(=O)NCC(=O)N[C@@H](C)C(=O)N2 (HELM PEPTIDE1{G.G.Q.C.F.R.I.L.K.K.C.R.R.D.S.D.C.P.G.A.C.I.C.R.G.N.G.Y.C.A.S}$PEPTIDE1,PEPTIDE1,4:R3-21:R3|PEPTIDE1,PEPTIDE1,11:R3-23:R3|PEPTIDE1,PEPTIDE1,17:R3-29:R3$$$V2.0)	6.97	-4.2			
CC[C@H](C)[C@@H]1NC(=O)[C@@H]2CSSC[C@H](NC(=O)[C@H](CCC(N)=O)NC(=O)CNC(=O)CN)C(=O)N[C@@H](Cc3ccccc3)C(=O)N[C@@H](CCCNC(=N)N)C(=O)N[C@@H]([C@@H](C)CC)C(=O)N[C@@H](CC(C)C)C(=O)N[C@@H](CCCCN)C(=O)N[C@@H](CCCCN)C(=O)N[C@H]3CSSC[C@H](NC1=O)C(=O)N[C@@H](CCCNC(=N)N)C(=O)NCC(=O)N[C@@H](CC(N)=O)C(=O)NCC(=O)N[C@@H](Cc1ccc(O)cc1)C(=O)N[C@H](C(=O)NCC(=O)N[C@@H](CO)C(=O)O)CSSC[C@H](NC(=O)[C@H](CC(=O)O)NC(=O)[C@H](CO)NC(=O)[C@H](CC(=O)O)NC(=O)[C@H](CCCNC(=N)N)NC(=O)[C@H](CCCNC(=N)N)NC3=O)C(=O)N1CCC[C@H]1C(=O)NCC(=O)N[C@@H](C)C(=O)N2 (HELM PEPTIDE1{G.G.Q.C.F.R.I.L.K.K.C.R.R.D.S.D.C.P.G.A.C.I.C.R.G.N.G.Y.C.G.S}$PEPTIDE1,PEPTIDE1,4:R3-21:R3|PEPTIDE1,PEPTIDE1,11:R3-23:R3|PEPTIDE1,PEPTIDE1,17:R3-29:R3$$$V2.0)	7.60		6.80	6.55	< 5.30

Source: ChEMBL document CHEMBL5236588 (J Med Chem, 2022)
